In paper PMC3214022, “Plasmodium falciparum Parasites Are Killed by a Transition State Analogue of Purine Nucleoside Phosphorylase in a Primate Animal Model” (PLoS ONE, 2011):

Experiment: Weights, CBC, blood chemistry and signs of toxicity, Table S1 sheet PD-2 (infected Aotus, twice a day for seven days)
Assay type: in vivo, Aotus lemurinus lemurinus
Conditions: oral 10 mg/kg twice a day/7 days, 25044 Male (ITM2)
Method: Laboratory bred Aotus lemurinus lemurinus monkeys (0.75–0.89 kg) were maintained as described. […] Blood samples were collected before the treatment started (t = 0), 0.05 h, 0.5 h, 1 h, 2 h, 6 h, 24 h, 48 h, and 6, 12 and 18 days after the first dose from each monkey and processed as described below. Pharmacokinetic parameters were calculated using PKSolver. For efficacy studies, Aotus monkeys were inoculated intravenously with 5×10^6 parasites of the FVO strain of P. falciparum in an approved treatment protocol. […] Parasitaemia was determined by Giemsa-stained thick blood smears prepared daily from the marginal ear vein [41]. Blood samples were collected from each monkey and transferred to tubes containing lithium heparin, centrifuged and both plasma and blood cells were frozen at −80 °C until analysis. Animals received a physical examination and blood chemistry profiles were monitored after treatment as described previously. Any monkey not responding appropriately to treatment was cured of its infection with mefloquine (40 mg kg^−1). […] The day of clearance is defined as the first of three consecutive days in which the thick blood films are parasite negative. The day of recrudescence is the first of three consecutive days of positive thick blood films after a period of clearance. Suppression is defined as a transient decrease in the parasite count post-treatment without clearance.

Nc1nc2c(CN3CC(O)C(CO)C3)c[nH]c2c(=O)[nH]1 (stereo not shown) [BCX4945, 4′-deaza-1′-aza-2′-deoxy-1′-(9-methylene)-Immucillin-G]
Blood Urea Nitrogen (day 8): 14.7 mg/dL
Creatine (day 8): 0.5 mg/dL
Erythrocytes (day 8): 4.72e+06 µL⁻¹
Glutamate Pyruvate Transaminase (day 8): 18.8 U/L
Granulocytes (%) (day 8): 14.6%
Granulocytes (x 103/ul) (day 8): 2.8 x 103/ul
Hematocrit (day 8): 36.6%
Hemoglobin (day 8): 12.9 g/dL
Leucocytes (day 8): 18900 µL⁻¹
Lymphocytes (%) (day 8): 74.4%
Lymphocytes (x 103/ul) (day 8): 14.1 x 103/ul
Mean Corpuscular Volume (day 8): 77.6 fL
Mean Hemoglobin Content (day 8): 35.3 g/dL
Mean Platelet Volume (day 8): 11.8 fL
Monocytes (%) (day 8): 11%
Monocytes (x 103/ul) (day 8): 2.1 x 103/ul
Platelets (day 8): 276000 µL⁻¹
Red Cell Distribution Width (day 8): 16.9%
Reticulocytes (day 8): 1.8%
WEIGHT (day 8): 820 g
Blood Urea Nitrogen (day 12): 12.6 mg/dL
Creatine (day 12): 0.5 mg/dL
Erythrocytes (day 12): 4.24e+06 µL⁻¹
Glutamate Pyruvate Transaminase (day 12): 48.0 U/L
Granulocytes (%) (day 12): 20%
Granulocytes (x 103/ul) (day 12): 2.6 x 103/ul
Hematocrit (day 12): 33.5%
Hemoglobin (day 12): 11.4 g/dL
Leucocytes (day 12): 13200 µL⁻¹
Lymphocytes (%) (day 12): 68.9%
Lymphocytes (x 103/ul) (day 12): 9.1 x 103/ul
Mean Corpuscular Hemoglobin (day 12): 27 pg
Mean Corpuscular Volume (day 12): 78.9 fL
Mean Hemoglobin Content (day 12): 34.2 g/dL
Mean Platelet Volume (day 12): 9.6 fL
Monocytes (%) (day 12): 11.1%
Monocytes (x 103/ul) (day 12): 1.5 x 103/ul
Platelets (day 12): 264000 µL⁻¹
Red Cell Distribution Width (day 12): 20.2%
Reticulocytes (day 12): 3.8%
WEIGHT (day 12): 840 g
Blood Urea Nitrogen (day 15): 13.8 mg/dL
Creatine (day 15): 0.5 mg/dL
Erythrocytes (day 15): 4.68e+06 µL⁻¹
Glutamate Pyruvate Transaminase (day 15): 29.1 U/L
Granulocytes (%) (day 15): 11.9%
Granulocytes (x 103/ul) (day 15): 3.4 x 103/ul
Hematocrit (day 15): 38.8%
Hemoglobin (day 15): 13.6 g/dL
Leucocytes (day 15): 28300 µL⁻¹
Lymphocytes (%) (day 15): 78.1%
Lymphocytes (x 103/ul) (day 15): 22.1 x 103/ul
Mean Corpuscular Hemoglobin (day 15): 29 pg
Mean Corpuscular Volume (day 15): 83 fL
Mean Hemoglobin Content (day 15): 34.9 g/dL
Mean Platelet Volume (day 15): 12.8 fL
Monocytes (%) (day 15): 10%
Monocytes (x 103/ul) (day 15): 2.8 x 103/ul
Platelets (day 15): 258000 µL⁻¹
Red Cell Distribution Width (day 15): 23.1%
Reticulocytes (day 15): 2.6%
WEIGHT (day 15): 830 g
Blood Urea Nitrogen (day 18): 15.2 mg/dL
Creatine (day 18): 0.5 mg/dL
Erythrocytes (day 18): 4.88e+06 µL⁻¹
Glutamate Pyruvate Transaminase (day 18): 22.3 U/L
Granulocytes (%) (day 18): 15.5%
Granulocytes (x 103/ul) (day 18): 2.7 x 103/ul
Hematocrit (day 18): 40.6%
Hemoglobin (day 18): 13.7 g/dL
Leucocytes (day 18): 17100 µL⁻¹
Lymphocytes (%) (day 18): 78%
Lymphocytes (x 103/ul) (day 18): 13.3 x 103/ul
Mean Corpuscular Hemoglobin (day 18): 28.1 pg
Mean Corpuscular Volume (day 18): 83.2 fL
Mean Hemoglobin Content (day 18): 33.8 g/dL
Mean Platelet Volume (day 18): 12.1 fL
Monocytes (%) (day 18): 6.5%
Monocytes (x 103/ul) (day 18): 1.1 x 103/ul
Platelets (day 18): 247000 µL⁻¹
Red Cell Distribution Width (day 18): 22.6%
Reticulocytes (day 18): 2.2%
WEIGHT (day 18): 820 g
Erythrocytes (day 25): 4.04e+06 µL⁻¹
Granulocytes (%) (day 25): 11.4%
Granulocytes (x 103/ul) (day 25): 2.3 x 103/ul
Hematocrit (day 25): 34.8%
Leucocytes (day 25): 19900 µL⁻¹
Lymphocytes (%) (day 25): 79.1%
Lymphocytes (x 103/ul) (day 25): 15.7 x 103/ul
Mean Corpuscular Hemoglobin (day 25): 27.6 pg
